A value given as a limit tells only on which side of the number the result lay.

The target of this experiment is T1, IL-17A/A (Homo sapiens, UniProt Q16552).
T1 construct: purchased Genscript Z03228
T1 sequence (Q16552 24-155): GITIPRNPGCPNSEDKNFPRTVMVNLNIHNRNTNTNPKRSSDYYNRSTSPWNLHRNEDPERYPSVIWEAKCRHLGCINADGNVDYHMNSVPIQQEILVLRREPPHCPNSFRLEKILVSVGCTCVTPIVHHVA
Put plainly: IL-17A/A HEK-Blue Cell Assay. In kind it is cell-based. Particulars: IL-17A/A inhibition, HEK-Blue IL-17A reporter cell line, SEAP readout at A630, incubated for 20 hours. The procedure:
Example 3: IL-17A/A HEK-Blue Cell Assay
The HEK-Blue IL-17A reporter cell line (Fisher #NC1408637) was used for cell-based IL-17A/A inhibition assays. Cells were grown and prepared for assays according to the manufacturer's instructions. This cell line consists of HEK 293 cells that were designed to expressed IL-17RA, IL-17RC, and the ActI adapter molecule, the combination of which, when stimulated by IL-17A/A activates a NFκB promoter and drives expression of a recombinant Secreted Alkaline Phosphatase (SEAP) gene protein. Media from the cells is then added to a development reagent (Quanti-Blue Substrate, Fisher #NC9711613), and read at A630.
Compounds were titrated in DMSO, with a top final compound concentration of 10 μM, 1 uM, or 0.3 μM, and added to the cells immediately before adding IL-17A/A (Genscript #Z03228). The cells, compound, and IL-17A/A were then incubated for 20 hours before media was removed for SEAP analysis. The resulting inhibition curve was then analyzed using Graphpad Prism 7.0, and IC50 values were determined using a 4-parameter nonlinear fit. DMSO was added to a universal final concentration of 0.1% to optimize background.
In general, IC50 refers to the concentration that gives 50% inhibition. In the case of `CCn1nccc1C(=O)N[C@H](c1nc2cc(CC3CCC(C(F)(F)F)NC3=O)cc(F)c2[nH]1)C(C1CC1)C1CC1` (stereo partly drawn) [Compound 52], the IC50 is 100 to 1000 nM. The figure for `CCn1nccc1C(=O)N[C@H](c1nc2cc(CC3CCC(C(F)(F)F)NC3=O)cc(F)c2[nH]1)C(C1CC1)C1CC1` (stereo partly drawn) [Compound 53] is 100 to 1000 nM; for `CCn1nccc1C(=O)N[C@H](c1nc2cc(CC3CCC(C(F)(F)F)NC3=O)cc(F)c2[nH]1)C(C1CC1)C1CC1` (stereo partly drawn) [Compound 54] it is above 1000 nM; for `CCn1nccc1C(=O)N[C@H](c1nc2cc(CC3CCC(C(F)(F)F)NC3=O)cc(F)c2[nH]1)C(C1CC1)C1CC1` (stereo partly drawn) [Compound 55] it is above 1000 nM.

As for `CCn1nccc1C(=O)N[C@H](c1nc2cc(CC3CCC(C(F)(F)F)NC3=O)cc(F)c2[nH]1)C(C1CC1)C1CC1` (stereo partly drawn) [Compound 56], the IC50 lay in the range of 100 to 1000 nM. On to `CCn1nccc1C(=O)N[C@H](c1nc2cc(CC3CCNC3=O)cc(C#N)c2[nH]1)C1CCC(F)(F)CC1` (stereo partly drawn) [Compound 57], for which the IC50 fell in the range of 100 to 1000 nM. The figure for `CC(C)n1nccc1C(=O)N[C@H](c1nc2ccc(C[C@H]3CCNC3=O)cc2[nH]1)C(C1CC1)C1CC1` [Compound 58] is 100 to 1000 nM; for `Cn1nccc1C(=O)N[C@H](c1nc2ccc(C[C@H]3CCNC3=O)cc2[nH]1)C(C1CC1)C1CC1` [Compound 59] it is 100 to 1000 nM. Take `CCn1nccc1C(=O)N[C@H](c1nc2ccc(C[C@H]3CCNC3=O)cc2[nH]1)[C@H]1CC[C@H](C)CC1` [Compound 61]: the IC50 is below 100 nM. As for `CCn1nccc1C(=O)N[C@H](c1nc2ccc(C[C@H]3CCNC3=O)cc2[nH]1)[C@H](c1ccccc1Cl)C(C)C` [Compound 62], the IC50 is above 1000 nM. `CC[C@@H](c1ccc(F)cc1)[C@H](NC(=O)c1ccnn1CC)c1nc2ccc(C[C@H]3CCNC3=O)cc2[nH]1` [Compound 63]: the IC50 was above 1000 nM. The figure for `CCn1nccc1C(=O)N[C@H](c1nc2ccc(C[C@H]3CCNC3=O)cc2[nH]1)C(C1CCC1)C1CCC1` [Compound 64] is 100 to 1000 nM; for `CC[C@@H](C1CCC1)[C@H](NC(=O)c1ccnn1CC)c1nc2ccc(C[C@H]3CCNC3=O)cc2[nH]1` [Compound 65] it is 100 to 1000 nM; for `CCn1nccc1C(=O)N[C@H](c1nc2ccc(C[C@H]3CCNC3=O)cc2[nH]1)[C@@H](C)[C@H]1CC[C@H](C)CC1` [Compound 66] it is 100 to 1000 nM.

For the compound `Cc1nonc1C(=O)N[C@H](c1nc2ccc(C[C@H]3CCNC3=O)cc2[nH]1)C1CCC(F)(F)CC1` [Compound 67], the IC50 was 100 to 1000 nM. With `O=C1N[C@H](C(F)(F)F)C[C@H]1Cc1ccc2nc([C@@H](NC(=O)C3(F)CC3)C(C3CC3)C3CC3)[nH]c2c1` [Compound 68], the IC50 was above 1000 nM. For `O=C1N[C@H](C(F)(F)F)C[C@@H]1Cc1ccc2nc([C@@H](NC(=O)C3(F)CC3)C(C3CC3)C3CC3)[nH]c2c1` [Compound 69], the half-maximal inhibitory concentration (IC50) lay within 100 to 1000 nM. With `CCn1nccc1C(=O)N[C@H](c1nc2ccc(CC3CCC(C)NC3=O)cc2[nH]1)C(C1CC1)C1CC1` (stereo partly drawn) [Compound 70], the IC50 lay within 100 to 1000 nM. The figure for `CCn1nccc1C(=O)N[C@H](c1nc2ccc(CC3CC(C(F)(F)F)CNC3=O)cc2[nH]1)C(C1CC1)C1CC1` (stereo partly drawn) [Compound 71] is 100 to 1000 nM. Then `CCn1nccc1C(=O)N[C@H](c1nc2ccc(CC3CC(C)NC3=O)cc2[nH]1)C(C1CC1)C1CC1` (stereo partly drawn) [Compound 72], with 100 to 1000 nM. The figure for `CCn1nccc1C(=O)N[C@H](c1nc2ccc(CC3CC(F)(F)CNC3=O)cc2[nH]1)C(C1CC1)C1CC1` (stereo partly drawn) [Compound 73] is 100 to 1000 nM. As to `CCn1nccc1C(=O)N[C@H](c1nc2ccc(C[C@H]3CC(F)(F)CNC3=O)cc2[nH]1)C(C1CC1)C1CC1` [Compound 74], the IC50 is below 100 nM. Then `CCn1nccc1C(=O)N[C@H](c1nc2ccc(C[C@@H]3CC(F)(F)CNC3=O)cc2[nH]1)C(C1CC1)C1CC1` [Compound 75], with 100 to 1000 nM; and `CCn1nccc1C(=O)N[C@H](c1nc2ccc(CC3C(=O)NC4CC43)cc2[nH]1)C(C1CC1)C1CC1` (stereo partly drawn) [Compound 76], with 100 to 1000 nM. Then `CCn1nccc1C(=O)N[C@H](c1nc2ccc(CC3C(=O)NCC3C(F)(F)F)cc2[nH]1)C(C1CC1)C1CC1` (stereo partly drawn) [Compound 77], with 100 to 1000 nM.

`CCn1nccc1C(=O)N[C@H](c1nc2ccc(C(COC)C3C[C@@H](C(F)(F)F)NC3=O)cc2[nH]1)C(C1CC1)C1CC1` (stereo partly drawn) [Compound 78]: the IC50 was above 1000 nM. Then `CCn1nccc1C(=O)N[C@H](c1nc2ccc(C(COC)C3C[C@@H](C(F)(F)F)NC3=O)cc2[nH]1)C(C1CC1)C1CC1` (stereo partly drawn) [Compound 79], with 100 to 1000 nM. Take `CCn1nccc1C(=O)N[C@H](c1nc2ccc(C(COC)C3C[C@@H](C(F)(F)F)NC3=O)cc2[nH]1)C(C1CC1)C1CC1` (stereo partly drawn) [Compound 80]: the IC50 lay in the range of 100 to 1000 nM. Then `CCn1nccc1C(=O)N[C@H](c1nc2ccc(C(C)C3CCCNC3=O)cc2[nH]1)C(C1CC1)C1CC1` (stereo partly drawn) [Compound 81], with above 1000 nM. The figure for `CCn1nccc1C(=O)N[C@H](c1nc2ccc(C(C)C3CCCNC3=O)cc2[nH]1)C(C1CC1)C1CC1` (stereo partly drawn) [Compound 82] is 100 to 1000 nM; for `CCn1nccc1C(=O)N[C@H](c1nc2ccc(C(C)C3CCCNC3=O)cc2[nH]1)C(C1CC1)C1CC1` (stereo partly drawn) [Compound 83] it is above 1000 nM; for `CCn1nccc1C(=O)N[C@H](c1nc2ccc(C(C)C3CCCNC3=O)cc2[nH]1)C(C1CC1)C1CC1` (stereo partly drawn) [Compound 84] it is 100 to 1000 nM. Then `CCn1nccc1C(=O)N[C@H](c1nc2ccc(C(C)C3CCCNC3=O)cc2[nH]1)C(C1CC1)C1CC1` (stereo partly drawn) [Compound 85], with above 1000 nM.

Take `CCn1nccc1C(=O)N[C@H](c1nc2ccc(C[C@H]3CCCNC3=O)cc2[nH]1)C1CCC(F)(F)CC1` [Compound 86]: the half-maximal inhibitory concentration (IC50) is above 1000 nM. The figure for `CCn1nccc1C(=O)N[C@H](c1nc2ccc(C[C@H]3CCCNC3=O)cc2[nH]1)[C@H]1CC[C@H](C)CC1` [Compound 87] is above 1000 nM; for `CCn1nccc1C(=O)N[C@H](c1nc2ccc(CC3CCCNC3=O)cc2[nH]1)[C@H]1CC[C@H](C(F)(F)F)CC1` (stereo partly drawn) [Compound 88] it is above 1000 nM.

Values taken from US20260226047A1, “BENZIMIDAZOLE AND AZA-BENZIMIDAZOLE BASED IL-17A MODULATORS AND USES THEREOF” (DICE ALPHA, INC., priority 2023, published 2026).
